Source: ChEMBL document CHEMBL1201862, “PubChem BioAssay data set” (2004)
Values joined by “and” are separate entries in the source; they are usually repeats but may differ in a detail not shown here. Equal values may be shown once.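 All cell lines were grown in 96-well plates and treated with compound for 48 hours. GI50 is the concentration that inhibits growth by half.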 Active and inactive are the calls of the source. No stated cut-off is given here; in the data, active = GI50 up to about 1.1 µM and inactive = higher.

Experiments:
Assay in all cases: NCI-60 cell line screen, 48 h
COLO 205 = tested on: COLO 205
DU-145 = tested on: DU-145
UACC-62 = tested on: UACC-62
SF-268 = tested on: SF-268
U-251 = tested on: U-251
NCI-H226 = tested on: NCI-H226
MDA-MB-231 = tested on: MDA-MB-231
SF-295 = tested on: SF-295
NCI-H522 = tested on: NCI-H522
LXFL 529 = tested on: LXFL 529
SN12C = tested on: SN12C
HT-29 = tested on: HT-29
SF-539 = tested on: SF-539
A549 = tested on: A549
Hs-578T = tested on: Hs-578T
EKVX = tested on: EKVX
CCRF-CEM = tested on: CCRF-CEM
SK-OV-3 = tested on: SK-OV-3
TK-10 = tested on: TK-10
MCF7 = tested on: MCF7

SMILES	GI50 (COLO 205)	GI50 (DU-145)	GI50 (UACC-62)	GI50 (SF-268)	GI50 (U-251)	GI50 (NCI-H226)	GI50 (MDA-MB-231)	GI50 (SF-295)	GI50 (NCI-H522)	GI50 (LXFL 529)	GI50 (SN12C)	GI50 (HT-29)	GI50 (SF-539)	GI50 (A549)	GI50 (Hs-578T)	GI50 (EKVX)	GI50 (CCRF-CEM)	GI50 (SK-OV-3)	GI50 (TK-10)	GI50 (MCF7)
Cn1cnc([N+](=O)[O-])c1Sc1nnc(-c2cccnc2)n1C	15.3 µM (inactive)	36.4 µM (inactive)	17.3 µM (inactive)	36.2 µM (inactive)	43.6 µM (inactive)	> 66.4 µM (inactive)	19.2 µM (inactive)	> 100 µM (inactive)	5.78 µM (inactive)	12 µM (inactive)	25.4 µM (inactive)	17.4 µM (inactive)	22.2 µM (inactive)	84.5 µM (inactive)	34.7 µM (inactive)	38.2 µM (inactive)	15.5 µM (inactive)	> 100 µM (inactive)	16.8 µM (inactive)	23.8 µM (inactive)
O=C1OC(CC(=O)c2ccc(Cl)cc2)C(Cl)=C1Cl (stereo not drawn)	> 100 µM (inactive)		> 100 µM (inactive)	> 100 µM (inactive)	> 100 µM (inactive)	> 100 µM (inactive)		> 100 µM (inactive)	94.8 µM (inactive)	> 100 µM (inactive)	> 100 µM (inactive)	> 100 µM (inactive)	> 100 µM (inactive)	> 100 µM (inactive)		> 100 µM (inactive)	35.6 µM (inactive)	> 100 µM (inactive)	> 100 µM (inactive)	
CCN(CC)c1ccc2cc3ccc(N(CC)CC)cc3[o+]c2c1	0.798 µM (active)		1.71 µM (inactive)	1.29 µM (inactive)	0.624 µM (active)	5.62 µM (inactive)		4.48 µM (inactive)	1.69 µM (inactive)	0.457 µM (active)	0.832 µM (active)	0.474 µM (active)	2.02 µM (inactive)	3.14 µM (inactive)		5.5 µM (inactive)	0.0419 µM (active)	6.52 µM (inactive)	6.08 µM (inactive)	
Cc1c(C(=O)CC(=O)C(=O)Nc2ccccc2C(F)(F)F)[n+]([O-])c2ccccc2[n+]1[O-]	12.3 µM (inactive)		18 µM (inactive)	21.2 µM (inactive)	19.6 µM (inactive)	> 100 µM (inactive)		31.6 µM (inactive)	16.4 µM (inactive)	20.8 µM (inactive)	22.2 µM (inactive)	18.5 µM (inactive)	23.2 µM (inactive)	24.2 µM (inactive)		19.5 µM (inactive)	18.6 µM (inactive)	25.5 µM (inactive)	46.8 µM (inactive)	
CCC(=O)OCOc1ccc(/C=C2\CCC(CN(C)C)C2=O)cc1 (stereo not drawn)	3.78 µM (inactive)	10.8 µM (inactive)	4.1 µM (inactive)	8.59 µM (inactive)	11.1 µM (inactive)	13.8 µM (inactive)	3.67 µM (inactive)	8.85 µM (inactive)	1.93 µM (inactive)	2.94 µM (inactive)	2.72 µM (inactive)	6.31 µM (inactive)	8.41 µM (inactive)	18.3 µM (inactive)	6.27 µM (inactive)	14 µM (inactive)	1.61 µM (inactive)	15.7 µM (inactive)	9.12 µM (inactive)	3.03 µM (inactive)
COC(=O)CCC(NC(=S)N/N=C/c1ccccn1)C(=O)OC (stereo not drawn)	> 100 µM (inactive)		> 100 µM (inactive)	> 100 µM (inactive)	> 100 µM (inactive)	> 100 µM (inactive)		> 100 µM (inactive)	> 100 µM (inactive)	> 100 µM (inactive)	> 100 µM (inactive)	> 100 µM (inactive)	> 100 µM (inactive)	> 100 µM (inactive)		> 100 µM (inactive)	> 100 µM (inactive)	> 100 µM (inactive)	> 100 µM (inactive)	
N#Cc1cccc(N2C(=O)c3ccc(C(=O)c4ccc5c(c4)C(=O)N(c4cccc(C#N)c4)C5=O)cc3C2=O)c1	> 100 µM (inactive)		> 100 µM (inactive)	> 100 µM (inactive)	35.8 µM (inactive)	> 100 µM (inactive)		> 100 µM (inactive)	> 100 µM (inactive)	> 100 µM (inactive)	> 100 µM (inactive)	> 100 µM (inactive)	> 100 µM (inactive)	> 100 µM (inactive)		> 100 µM (inactive)	> 100 µM (inactive)	> 100 µM (inactive)	> 100 µM (inactive)	
O=c1c(Cl)c(Cl)cnn1-c1ccccc1		14.7 µM (inactive) and 12.5 µM (inactive)	1.67 µM (inactive) and 2.21 µM (inactive)	5.05 µM (inactive) and 6.64 µM (inactive)	3.51 µM (inactive) and 1.79 µM (inactive)	9.38 µM (inactive) and 9.14 µM (inactive)	1.77 µM (inactive)		1.26 µM (inactive) and 1.84 µM (inactive)	1.67 µM (inactive) and 1.71 µM (inactive)	2.06 µM (inactive) and 3.85 µM (inactive)			20.3 µM (inactive) and 10.8 µM (inactive)	1.54 µM (inactive) and 2.56 µM (inactive)				15.6 µM (inactive) and 9.33 µM (inactive)	4.07 µM (inactive) and 3.31 µM (inactive)
